Laboratory results: article PMC10379331, “Identification of a Putative SARS-CoV-2 Main Protease Inhibitor through In Silico Screening of Self-Designed Molecular Library” (International Journal of Molecular Sciences, 2023)

Target: M^pro protein (SARS-CoV-2 main protease) (Severe acute respiratory syndrome coronavirus 2, UniProt P0DTD1)
Experiment: FRET-based in vitro enzymatic inhibition assay
Assay type: biochemical
Settings: not given

Row | SMILES | IC50 [µM]
1 | Cc1cn(-c2cc(NC(=O)c3ccc(C)c(Nc4nccc(-c5cccnc5)n4)c3)cc(C(F)(F)F)c2)cn1 [Nilotinib, reference compound] | 19.9 ± 1.27

Same assay, conditions: 0.2 μM M^pro, 20 μM substrate MCA-[…]-Lys(Dnp)-Lys-NH2, 30 min preincubation at 37 °C; read-out: IC50 Value

Row | SMILES | IC50 [µM]
2 | Nc1nc2cc(-c3cn([C@@H]4CN[C@H](C(=O)Nc5ccc(Cl)c(C(F)(F)F)c5)C4)nn3)cnc2s1 [Compound V304] | > 20
3 | Nc1n[nH]c2cccc(-c3ccc(C(=O)N4CCN(C(=O)c5cccc(F)c5)CC4)cc3)c12 [Compound V205] | > 20
4 | Nc1n[nH]c2cccc(-c3ccc(C(=O)NCCNC(=O)c4ccc(Br)cc4)cc3)c12 [Compound V111] | > 20
5 | O=C(c1ccc(-c2cc(Nc3ccc(Cl)cc3Cl)ncn2)cc1)N1CCN(C(=O)c2ccccc2F)CC1 [Compound V159] | > 20
6 | CC(=O)Nc1ccc(-c2ccc(C(=O)N[C@H](C(=O)Nc3ccc(Cl)c(C(F)(F)F)c3)C(C)(C)C)cc2)cn1 [Compound V231] | > 20
7 | Nc1n[nH]c2cc(-c3cn([C@@H]4CN[C@H](C(=O)Nc5ccc(Cl)c(C(F)(F)F)c5)C4)nn3)ccc12 [Compound V291] | 2.77 ± 0.56
8 | CC(C)(C)OCC(NC(=O)c1ccc(-c2cncc(C(=O)NC3CC3)c2)cc1)C(=O)Nc1ccc(Cl)c(C(F)(F)F)c1 (stereo not shown) [Compound V243] | > 20
9 | CCC(=O)Nc1ccc(-c2cccc(C(=O)N[C@@H]3CN[C@H](C(=O)Nc4ccc(Cl)c(C(F)(F)F)c4)C3)c2)cn1 [Compound V139] | > 20
10 | CCN(CC)C(=O)c1cncc(-c2cccc(C(=O)N[C@@H](C(=O)Nc3ccc(Cl)c(C(F)(F)F)c3)C(C)(C)C)c2)c1 [Compound V226] | > 20
